Values quoted from earlier work, collected in publication PMC8886800 (Journal of the American Chemical Society, 2021).

In the case of Ac-KLTWMELY QLAYKGI [MA], the “binding to VEGF receptors (reported)” value (VEGFR) is given as “demonstrated binding to VEGF receptors” and the “effect on angiogenesis (reported)” value (angiogenesis) is given as “capable of inhibiting angiogenesis”.
